Assay results reported in patent publication US11807835B2, “Detergent compositions containing a stabilized enzyme by phosphonates” (ECOLAB USA INC., priority 2016, dated 2023).

Tested on: lipase
Experiment: Lipase activity retention in detergent use solution (4000 ppm, 5 GPG water; p-nitrophenyl valerate, TRIS buffer pH 8.0)
Type: biochemical
Conditions: base formula
Protocol: The enzyme […] collected up to 4 hours, after a use solution was generated from the detergent composition. During the tests, the samples at different time points were collected and immediately frozen in an acetone/dry ice bath and stored in −80° C. before the activity of the enzyme was evaluated. For the use of such an assay, t=0 min was the reference point for 100% enzyme activity.
Assays of enzyme activity in formulations (% retention) were conducted to simulate a presoak condition in a beaker using the chemistry, temperature, and pH conditions relevant to manual warewash or presoak applications. Enzyme activity is an indicator of the stability of the enzyme in the detergent, specifically in an aqueous use solution within a sump (which is under conditions of high pH, temperature and dilution).
Enzyme activity under presoak or manual warewash conditions was traced quantitatively using a standard protease assay. Samples were prepared under bench top conditions, whereby the use solution from a detergent composition or detergent was obtained and maintained at a presoak or manual warewash temperature in a stirring water bath. After the time course for assessing enzyme stability is initiated, aliquots were taken at various time points and flash-frozen. A time=0 sample was prepared for each series by dissolving the detergent formulation at room temperature, mixing thoroughly, and flash freezing. Samples were thawed and diluted as necessary in an assay buffer usually for use in the protease assay. A glycine buffer at pH 9.0 is used here. The assay monitored the direct reaction of the protease on a small, commercially available peptidyl substrate, with liberation of the product providing correlation to the active enzyme content. The product was detected using a plate reader with an appreciable dynamic range (upper absorbance limit of the instrument >3.5). Enzyme activity levels were assessed relative to a calibration curve with average values for replicate tests used to map protease stability under presoak or manual warewash use conditions. Enzyme retention at each time point was calculated as the % enzyme activity relative to the time=0 sample.
The analysis by lipase and amylase assay was conducted similarly, except with a different substrate and buffers. For lipase activity, the substrate is p-nitrophenyl valerate, and for amylase, the substrate is an ethylidene substrate (EPS). The buffer used in lipase assay is TRIS (Tris(hydroxymethyl)aminomethane) buffer at pH 8.0, and in amylase assay HEPES (4-(2-hydroxyethyl)-1-piperazineethanesulfonic acid) buffer at pH 8.0.

[1] = phosphonate 0.3 wt-%, use solution at 120° F., time 0 min
[2] = phosphonate 0.3 wt-%, use solution at 120° F., time 5 min
[3] = phosphonate 0.3 wt-%, use solution at 120° F., time 10 min
[4] = phosphonate 0.3 wt-%, use solution at 120° F., time 20 min
[5] = phosphonate 0.3 wt-%, use solution at 120° F., time 40 min
[6] = phosphonate 0.3 wt-%, use solution at 120° F., time 60 min
[7] = phosphonate 0.3 wt-%, use solution at 120° F., time 90 min
[8] = phosphonate 0.3 wt-%, use solution at 120° F., time 120 min
[9] = phosphonate 0.3 wt-%, use solution at 120° F., time 150 min
[10] = phosphonate 0.3 wt-%, use solution at 120° F., time 180 min
[11] = phosphonate 0.3 wt-%, use solution at 120° F., time 210 min
[12] = phosphonate 0.3 wt-%, use solution at 120° F., time 240 min
[13] = phosphonate 0.6 wt-%, use solution at 120º F., time 0 min
[14] = phosphonate 0.6 wt-%, use solution at 120º F., time 5 min
[15] = phosphonate 0.6 wt-%, use solution at 120º F., time 10 min
[16] = phosphonate 0.6 wt-%, use solution at 120º F., time 20 min
[17] = phosphonate 0.6 wt-%, use solution at 120º F., time 40 min
[18] = phosphonate 0.6 wt-%, use solution at 120º F., time 60 min
[19] = phosphonate 0.6 wt-%, use solution at 120º F., time 90 min
[20] = phosphonate 0.6 wt-%, use solution at 120º F., time 120 min
[21] = phosphonate 0.6 wt-%, use solution at 120º F., time 150 min
[22] = phosphonate 0.6 wt-%, use solution at 120º F., time 180 min
[23] = phosphonate 0.6 wt-%, use solution at 120º F., time 210 min
[24] = phosphonate 0.6 wt-%, use solution at 120º F., time 240 min
[25] = phosphonate at 0.1% elemental phosphorus, at 120º F. or at room temperature (as titled), time 0 min
[26] = phosphonate at 0.1% elemental phosphorus, at 120º F. or at room temperature (as titled), time 5 min
[27] = phosphonate at 0.1% elemental phosphorus, at 120º F. or at room temperature (as titled), time 10 min
[28] = phosphonate at 0.1% elemental phosphorus, at 120º F. or at room temperature (as titled), time 20 min
[29] = phosphonate at 0.1% elemental phosphorus, at 120º F. or at room temperature (as titled), time 40 min
[30] = phosphonate at 0.1% elemental phosphorus, at 120º F. or at room temperature (as titled), time 60 min
[31] = phosphonate at 0.1% elemental phosphorus, at 120º F. or at room temperature (as titled), time 90 min
[32] = phosphonate at 0.1% elemental phosphorus, at 120º F. or at room temperature (as titled), time 120 min
[33] = phosphonate at 0.1% elemental phosphorus, at 120º F. or at room temperature (as titled), time 150 min
[34] = phosphonate at 0.1% elemental phosphorus, at 120º F. or at room temperature (as titled), time 180 min
[35] = phosphonate at 0.1% elemental phosphorus, at 120º F. or at room temperature (as titled), time 210 min
[36] = phosphonate at 0.1% elemental phosphorus, at 120º F. or at room temperature (as titled), time 240 min

Substance	Relative Lipase Enzyme Activity [1]	Relative Lipase Enzyme Activity [2]	Relative Lipase Enzyme Activity [3]	Relative Lipase Enzyme Activity [4]	Relative Lipase Enzyme Activity [5]	Relative Lipase Enzyme Activity [6]	Relative Lipase Enzyme Activity [7]	Relative Lipase Enzyme Activity [8]	Relative Lipase Enzyme Activity [9]	Relative Lipase Enzyme Activity [10]	Relative Lipase Enzyme Activity [11]	Relative Lipase Enzyme Activity [12]	Relative Lipase Enzyme Activity [13]	Relative Lipase Enzyme Activity [14]	Relative Lipase Enzyme Activity [15]	Relative Lipase Enzyme Activity [16]	Relative Lipase Enzyme Activity [17]	Relative Lipase Enzyme Activity [18]	Relative Lipase Enzyme Activity [19]	Relative Lipase Enzyme Activity [20]	further results
Monoethanolamine phosphonate [MEAP]	100.00%	84.99%	78.55%	58.36%	39.07%	31.84%	26.97%	22.23%	20.19%	19.50%	16.46%	15.76%	100.00%	95.37%	90.69%	83.63%	72.89%	69.90%	65.92%	59.18%	Relative Lipase Enzyme Activity [21]: 53.85%; Relative Lipase Enzyme Activity [22]: 51.72%; Relative Lipase Enzyme Activity [23]: 47.03%; Relative Lipase Enzyme Activity [24]: 42.96%; Relative Lipase Enzyme Activity [25]: 100.00%; Relative Lipase Enzyme Activity [26]: 81.36%; Relative Lipase Enzyme Activity [27]: 84.98%; Relative Lipase Enzyme Activity [28]: 71.62%; Relative Lipase Enzyme Activity [29]: 57.03%; Relative Lipase Enzyme Activity [30]: 47.80%; Relative Lipase Enzyme Activity [31]: 41.02%; Relative Lipase Enzyme Activity [32]: 31.46%; Relative Lipase Enzyme Activity [33]: 28.32%; Relative Lipase Enzyme Activity [34]: 20.93%; Relative Lipase Enzyme Activity [35]: 23.04%; Relative Lipase Enzyme Activity [36]: 20.87%
Polyamino Polyether Methylene Phosphonic Acid [PAPEMP]	49.99%	100.00%	92.85%	77.81%	54.24%	51.08%	45.80%	36.29%	33.14%	28.25%	26.56%	24.03%	100.00%	86.04%	83.42%	73.22%	64.86%	59.26%	47.33%	42.05%	Relative Lipase Enzyme Activity [21]: 38.58%; Relative Lipase Enzyme Activity [22]: 29.04%; Relative Lipase Enzyme Activity [23]: 31.37%; Relative Lipase Enzyme Activity [24]: 29.77%; Relative Lipase Enzyme Activity [25]: 100.00%; Relative Lipase Enzyme Activity [26]: 91.09%; Relative Lipase Enzyme Activity [27]: 83.66%; Relative Lipase Enzyme Activity [28]: 75.51%; Relative Lipase Enzyme Activity [29]: 58.49%; Relative Lipase Enzyme Activity [30]: 54.87%; Relative Lipase Enzyme Activity [31]: 48.29%; Relative Lipase Enzyme Activity [32]: 42.46%; Relative Lipase Enzyme Activity [33]: 38.07%; Relative Lipase Enzyme Activity [34]: 33.57%; Relative Lipase Enzyme Activity [35]: 31.15%; Relative Lipase Enzyme Activity [36]: 31.01%
